In assay [1] the target is T1, Acetylcholinesterase (Rattus norvegicus, UniProt P37136).
T1 sequence (P37136 whole entry): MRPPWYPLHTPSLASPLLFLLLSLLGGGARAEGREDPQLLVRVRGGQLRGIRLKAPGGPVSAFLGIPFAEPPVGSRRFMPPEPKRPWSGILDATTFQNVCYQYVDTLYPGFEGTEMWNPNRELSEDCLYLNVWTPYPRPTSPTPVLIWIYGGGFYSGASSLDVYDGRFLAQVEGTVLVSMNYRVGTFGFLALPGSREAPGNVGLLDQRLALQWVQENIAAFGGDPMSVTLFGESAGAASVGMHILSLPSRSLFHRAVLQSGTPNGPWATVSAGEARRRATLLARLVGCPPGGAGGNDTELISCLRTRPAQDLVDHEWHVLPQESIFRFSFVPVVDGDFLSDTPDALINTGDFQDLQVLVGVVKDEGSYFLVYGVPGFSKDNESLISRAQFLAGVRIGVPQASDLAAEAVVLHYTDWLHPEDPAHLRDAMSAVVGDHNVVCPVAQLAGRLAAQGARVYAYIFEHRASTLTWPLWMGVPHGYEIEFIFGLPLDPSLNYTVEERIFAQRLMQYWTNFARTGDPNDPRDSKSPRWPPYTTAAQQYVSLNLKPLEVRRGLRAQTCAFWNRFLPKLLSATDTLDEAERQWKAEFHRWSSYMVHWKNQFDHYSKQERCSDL
As to the kind of experiment: Inhibition of rat brain homogenate AchE. The following applies: for pIC50: read-out: IC50.

In assay [2] the target is Acetylcholinesterase (Homo sapiens, UniProt P22303). The assay can be described thus: Inhibition of human serum AchE.
Chain of Acetylcholinesterase (Homo sapiens, UniProt P22303) (P22303 whole entry): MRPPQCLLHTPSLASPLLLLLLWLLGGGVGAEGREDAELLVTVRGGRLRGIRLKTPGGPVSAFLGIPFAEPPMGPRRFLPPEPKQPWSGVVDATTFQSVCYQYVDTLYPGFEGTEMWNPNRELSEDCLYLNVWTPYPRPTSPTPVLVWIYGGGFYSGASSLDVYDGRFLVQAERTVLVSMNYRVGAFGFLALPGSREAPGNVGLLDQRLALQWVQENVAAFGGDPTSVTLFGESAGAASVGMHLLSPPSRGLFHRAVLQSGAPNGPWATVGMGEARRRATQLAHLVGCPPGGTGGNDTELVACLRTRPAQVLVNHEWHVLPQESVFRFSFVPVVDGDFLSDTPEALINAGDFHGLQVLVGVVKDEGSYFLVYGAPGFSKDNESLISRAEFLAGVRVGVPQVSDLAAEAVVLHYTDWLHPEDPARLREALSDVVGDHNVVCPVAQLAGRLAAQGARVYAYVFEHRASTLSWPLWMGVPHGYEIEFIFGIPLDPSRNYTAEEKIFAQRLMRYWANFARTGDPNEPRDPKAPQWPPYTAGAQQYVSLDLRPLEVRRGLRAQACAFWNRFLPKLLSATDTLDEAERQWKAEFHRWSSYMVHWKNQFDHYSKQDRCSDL
Assay [3] deals with Acetylcholinesterase (Electrophorus electricus, UniProt O42275). As to the kind of experiment: Inhibition of electric eel AchE.
Chain of Acetylcholinesterase (Electrophorus electricus, UniProt O42275) (O42275 whole entry): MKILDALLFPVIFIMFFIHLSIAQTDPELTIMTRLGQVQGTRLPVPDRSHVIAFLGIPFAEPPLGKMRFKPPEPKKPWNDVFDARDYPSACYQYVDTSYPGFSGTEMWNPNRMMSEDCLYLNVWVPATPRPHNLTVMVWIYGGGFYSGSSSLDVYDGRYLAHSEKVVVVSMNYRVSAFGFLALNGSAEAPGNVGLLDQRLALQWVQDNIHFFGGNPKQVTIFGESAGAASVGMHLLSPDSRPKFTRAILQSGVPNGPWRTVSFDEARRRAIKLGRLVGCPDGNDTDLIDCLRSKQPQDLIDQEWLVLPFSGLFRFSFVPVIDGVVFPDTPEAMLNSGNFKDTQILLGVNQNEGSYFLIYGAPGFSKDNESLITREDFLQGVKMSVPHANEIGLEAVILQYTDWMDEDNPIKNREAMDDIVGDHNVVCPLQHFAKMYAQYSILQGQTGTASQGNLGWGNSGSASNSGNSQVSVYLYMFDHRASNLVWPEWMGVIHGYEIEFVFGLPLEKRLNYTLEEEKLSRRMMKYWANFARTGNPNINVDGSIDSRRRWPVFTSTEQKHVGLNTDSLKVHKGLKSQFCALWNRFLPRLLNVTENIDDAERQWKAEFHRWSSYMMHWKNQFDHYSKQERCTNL
Assay [4] deals with Rattus norvegicus. The assay can be described thus: Antiamnesic effect against scopolamine-induced memory loss in passive avoidance step-down task paradigm in rat assessed as number of mistakes at 0.1 mg/kg, ip. In kind it is functional. The following applies: route intraperitoneal.
Assay [5] relates to Rattus norvegicus. As to the kind of experiment: Antiamnesic effect in passive avoidance step-down task paradigm in rat assessed as number of mistakes at 0.4 mg/kg, ip. In kind it is functional. The conditions noted are these: route intraperitoneal.

pIC50: −log10 of the molar value.

Turning to `N#Cc1ccccc1-c1ccc(CN2CCN(C(c3ccc(F)cc3)c3ccc(F)cc3)CC2)cc1`, the figures for the negative-log IC50 (pIC50) at Acetylcholinesterase [1], at Acetylcholinesterase [2] and against Acetylcholinesterase [3] were 7.43, 7.13 and 7.15, respectively. Further, the Activity in the assay with Rattus norvegicus [4] came to 11.

Turning to `Cc1nc2ccccn2c(=O)c1CCN1CCN(C(c2ccc(F)cc2)c2ccc(F)cc2)CC1`, on Acetylcholinesterase [1], the IC50 entry was “Not Active”. In addition, the figures for the negative logarithm of the IC50 (pIC50) against Acetylcholinesterase [2] and against Acetylcholinesterase [3] were 5.49 and 5.67, respectively. Also, the Activity in the assay on Rattus norvegicus [4] is recorded as 32.

`COc1cc(Br)c(CN2CCN(C(c3ccc(F)cc3)c3ccc(F)cc3)CC2)cc1OC`: the IC50 result against Acetylcholinesterase [1] is “Not Active”. The pIC50 is 5.99 against Acetylcholinesterase [2] and 6.15 on Acetylcholinesterase [3]. The Activity with Rattus norvegicus [4] stood at 34.

On to `Fc1ccc(C(c2ccc(F)cc2)N2CCN(CCN3CCCCC3)CC2)cc1`, for which the negative-log IC50 (pIC50) at Acetylcholinesterase [1] was 7.03; on Acetylcholinesterase [2], 6.90; on Acetylcholinesterase [3], 6.87. Also, in the assay on Rattus norvegicus [4], the Activity came to 12.

With `CC1=C(CCN2CCN(C(c3ccc(F)cc3)c3ccc(F)cc3)CC2)C(=O)C2CCCCC2=N1` (stereo not given), the IC50 entry against Acetylcholinesterase [1] is “Not Active”. The pIC50 at Acetylcholinesterase [2] is 5.97; against Acetylcholinesterase [3] it was 5.92. Besides, in the assay with Rattus norvegicus [4], the Activity is on record as 34.

Turning to `Cc1cc2c(cc1CN1CCN(C(c3ccc(F)cc3)c3ccc(F)cc3)CC1)OCO2`, the IC50 result against Acetylcholinesterase [1] was “Not Active”. Further, the results for the negative logarithm of the IC50 (pIC50) at Acetylcholinesterase [2] and against Acetylcholinesterase [3] were 5.87 and 5.94, respectively. Further, the Activity in the assay with Rattus norvegicus [4] is 33.

With `Fc1ccc(C(c2ccc(F)cc2)N2CCN(CCN3CCOCC3)CC2)cc1`, the pIC50 at Acetylcholinesterase [1] is 6.70; on Acetylcholinesterase [2], 6.55; at Acetylcholinesterase [3], 6.60. Moreover, the Activity with Rattus norvegicus [4] stood at 16.

`Fc1ccc(C(c2ccc(F)cc2)N2CCN(CCN3CCCC3)CC2)cc1`: the pIC50 at Acetylcholinesterase [1] was 7.73; against Acetylcholinesterase [2] it was 7.68; at Acetylcholinesterase [3], 7.75. Further, in the assay on Rattus norvegicus [4], the Activity worked out at 10.

Consider `CN(C)C(=O)Oc1cccc([N+](C)(C)C)c1` [NEOSTIGMINE METHYLSULFATE], for which the pIC50 at Acetylcholinesterase [1] is 7.43; on Acetylcholinesterase [3] it was 4.39.

Take `CN1[C@@H]2C[C@@H](OC(=O)[C@H](CO)c3ccccc3)C[C@H]1[C@@H]1O[C@@H]12` [SCOPOLAMINE]: in the assay on Rattus norvegicus [5], the Activity was 35.
